Target: T1, mGlyT-1b (Mus musculus, UniProt P28571)
T1 construct: expressed in transfected cells; host or cells: Flp-in-CHO (Invitrogen Cat no R758-07), stably transfected
T1 sequence (P28571 1-651 isoform P28571-2): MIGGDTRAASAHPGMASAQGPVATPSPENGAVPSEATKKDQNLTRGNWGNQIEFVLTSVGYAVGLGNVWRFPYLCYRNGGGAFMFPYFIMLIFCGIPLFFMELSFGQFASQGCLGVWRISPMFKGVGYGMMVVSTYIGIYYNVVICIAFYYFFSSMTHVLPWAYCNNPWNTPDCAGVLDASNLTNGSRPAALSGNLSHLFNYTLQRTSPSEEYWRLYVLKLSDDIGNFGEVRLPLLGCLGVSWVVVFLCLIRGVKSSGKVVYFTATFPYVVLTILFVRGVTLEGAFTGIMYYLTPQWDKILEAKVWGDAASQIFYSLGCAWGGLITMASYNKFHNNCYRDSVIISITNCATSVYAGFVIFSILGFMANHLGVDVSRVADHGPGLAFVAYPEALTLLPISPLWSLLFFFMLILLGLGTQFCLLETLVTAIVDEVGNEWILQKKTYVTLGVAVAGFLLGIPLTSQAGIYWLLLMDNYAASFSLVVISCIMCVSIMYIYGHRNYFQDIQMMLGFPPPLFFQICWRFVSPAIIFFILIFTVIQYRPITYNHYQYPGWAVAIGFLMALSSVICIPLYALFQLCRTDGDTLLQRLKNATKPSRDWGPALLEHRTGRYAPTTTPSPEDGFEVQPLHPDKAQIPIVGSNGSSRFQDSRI
Experiment: Glycine Uptake Inhibition Assay (mGlyT-1b)
Type: cell-based
Settings: [3H]-glycine uptake in Flp-in-CHO cells transfected with mGlyT-1b cDNA; read-out: IC50 (μM) at GlyT-1
Experimental: DMEM complete medium: Nutrient mixture F-12 (Gibco Life-technologies), fetal bovine serum (FBS) 5%, (Gibco life technologies), Penicillin/Streptomycin 1% (Gibco life technologies), Hygromycin 0.6 mg/ml (Gibco life technologies), Glutamine 1 mM Gibco life technologies)
Uptake buffer (UB): 150 mM NaCl, 10 mM Hepes-Tris, pH 7.4, 1 mM CaCl2, 2.5 mM KCl, 2.5 mM MgSO4, 10 mM (+) D-glucose.
Flp-in™-CHO (Invitrogen Cat no R758-07) cells stably transfected with mGlyT1b cDNA.
Glycine Uptake Inhibition Assay (mGlyT-1b)
On day 1 mammalian cells, (Flp-in™-CHO), transfected with mGlyT-1b cDNA, were plated at the density of 40,000 cells/well in complete F-12 medium, without hygromycin in 96-well culture plates. On day 2, the medium was aspirated and the cells were washed twice with uptake buffer (UB). The cells were then incubated for 20 min at 22° C. with either (i) no potential competitor, (ii) 10 mM non-radioactive glycine, (iii) a concentration of a potential inhibitor. A range of concentrations of the potential inhibitor was used to generate data for calculating the concentration of inhibitor resulting in 50% of the effect (e.g. IC50, the concentration of the competitor inhibiting glycine uptake of 50%). A solution was then immediately added containing [^3H]-glycine 60 nM (11-16 Ci/mmol) and 25 μM non-radioactive glycine. The plates were incubated with gentle shaking and the reaction was stopped by aspiration of the mixture and washing (three times) with ice-cold UB. The cells were lysed with scintillation liquid, shaken 3 hours and the radioactivity in the cells was counted using a scintillation counter.

IC50 | SMILES
0.015 µM | CC(=O)c1ccc(N2CCN(C(=O)c3cc(S(C)(=O)=O)ccc3SC(C)C)CC2)c(F)c1 [Example 22, 1-{3-Fluoro-4-[4-(2-isopropylsulfanyl-5-methanesulfonyl-benzoyl)-piperazin-1-yl]-phenyl}-ethanone]
0.007 µM | CC(C)Sc1ccc([N+](=O)[O-])cc1C(=O)N1CCN(c2ccc(C(F)(F)F)cc2)CC1 [Example 27, (2-Isopropylsulfanyl-5-nitro-phenyl)-[4-(4-trifluoromethyl-phenyl)-piperazin-1-yl]-methanone]
0.006 µM | CNS(=O)(=O)c1ccc(SC(C)C)c(C(=O)N2CCN(c3ccc(C(F)(F)F)cc3)CC2)c1 [Example 25, 4-Isopropylsulfanyl-N-methyl-3-[4-(4-trifluoromethyl-phenyl)-piperazine-1-carbonyl]-benzenesulfonamide]
0.07 µM | CS(=O)(=O)c1ccc(SCC(F)(F)F)c(C(=O)N2CCN(c3ncc(C(F)(F)F)cc3F)CC2)c1 [Example 11, [4-(3-Fluoro-5-trifluoromethyl-pyridin-2-yl)-piperazin-1-yl]-[5-methanesulfonyl-2-(2,2,2-trifluoro-ethylsulfanyl)-phenyl]-methanone]
0.04 µM | CC(C)Sc1ccc(S(C)(=O)=O)cc1C(=O)N1CCN(c2ccc(S(C)(=O)=O)cc2F)CC1 [Example 6, [4-(2-Fluoro-4-methanesulfonyl-phenyl)-piperazin-1-yl]-(2-isopropylsulfanyl-5-methanesulfonyl-phenyl)-methanone]
0.018 µM | CC(C)Sc1ccc(S(C)(=O)=O)cc1C(=O)N1CCN(c2ccc([N+](=O)[O-])cc2Cl)CC1 [Example 23, [4-(2-Chloro-4-nitro-phenyl)-piperazin-1-yl]-(2-isopropylsulfanyl-5-methanesulfonyl-phenyl)-methanone]
0.03 µM | CC(C)Sc1ccc(S(C)(=O)=O)cc1C(=O)N1CCN(c2ncc(C(F)(F)F)cc2F)CC1 [Example 3, [4-(3-Fluoro-5-trifluoromethyl-pyridin-2-yl)-piperazin-1-yl]-(2-isopropylsulfanyl-5-methanesulfonyl-phenyl)-methanone]
0.1 µM | CS(=O)(=O)c1ccc(N2CCN(C(=O)c3cc(S(C)(=O)=O)ccc3SCC(F)(F)F)CC2)c(F)c1 [Example 14, [4-(2-Fluoro-4-methanesulfonyl-phenyl)-piperazin-1-yl]-[5-methanesulfonyl-2-(2,2,2-trifluoro-ethylsulfanyl)-phenyl]-methanone]
0.1 µM | CC(C)CSc1ccc(S(C)(=O)=O)cc1C(=O)N1CCN(c2ccc(S(C)(=O)=O)cc2F)CC1 [Example 18, [4-(2-Fluoro-4-methanesulfonyl-phenyl)-piperazin-1-yl]-(2-isobutylsulfanyl-5-methanesulfonyl-phenyl)-methanone]
0.08 µM | CCSc1ccc(S(C)(=O)=O)cc1C(=O)N1CCN(c2ncc(C(F)(F)F)cc2F)CC1 [Example 7, (2-Ethylsulfanyl-5-methanesulfonyl-phenyl)-[4-(3-fluoro-5-trifluoromethyl-pyridin-2-yl)-piperazin-1-yl]-methanone]

Source: patent US20060149062A1, “Sulfanyl substituted phenyl methanones” (priority 2005, published 2006)
